Where a SMILES comes first, the peptide text is derived from it.
What was measured:
[1] = system: E. coli BL21 cells; test: Flow cytometry propidium iodide influx, E. coli BL21; type: cell-based, Escherichia coli BL21; conditions: E. coli BL21, at peptide MIC; 30 min peptide, 10 μg ml^−1 PI
Protocol: The effect of peptides on the cell-membrane integrity of E. coli BL21 and DH5α and lymphoma cells was studied using the flow cytometer analysis as described elsewhere. The cells were cultured and washed three times using PBS buffer and incubated for 30 minutes with peptides at different concentration. The incubated lymphoma cells were further processed referring to the annexin V-FITC apoptosis kit. Peptide treated and untreated cells (E. coli/lymphoma) were stained with 10 μg ml^−1 propidium iodide (PI) and incubated for additional 30 min. The incubated cells were washed using PBS to remove unbound dye and flow cytometry analysis was carried out using the FACSCalibur and analyzed by CellQuest Pro Version 5.2.1 software (BD Biosciences, NJ, USA).

[2] = system: E. coli BL21 strain; test: Transmission electron microscopy, E. coli BL21; type: cell-based, Escherichia coli BL21; conditions: E. coli BL21, 2 μM, 1 hour 37 °C
Protocol: (§1) E. coli DH5α and BL21 strains were subjected to TEM analysis. E. coli strains were cultured at 37°C in LB broth to mid-log phase and harvested by centrifugation at 5000 g for 5 minutes. The cell pellets were re-suspended in fresh LB media with an OD600 = 0.18. A peptide (Syn1) solution at a concentration of 2 μM (MIC) was added to E. coli DH5α and BL21 strains and the samples were incubated at 37°C for 1 hour. The culture was centrifuged at 5000 g for 5 minutes and the cell pellets were collected. The cell pellets were washed twice and re-suspended in 1 mL fixation buffer that contains 2% formaldehyde, 2.5% glutaryldehide in 0.1 M phosphate buffer (pH = 7.4). The fixed bacterial cells were observed under the microscope, JEM-1011 (JEOL, Tokyo, Japan).

[3] = system: E. coli DH5α strain; test: Transmission electron microscopy, E. coli DH5α; type: cell-based, Escherichia coli DH5α; conditions: 4 μM
Protocol: as §1, with “A peptide (Syn1) solution at a concentration of 2 μM (MIC) was added to E. coli DH5α and BL21 strains and the samples were incubated at 37°C for 1 hour.” left out

[4] = system: RBCs; test: Hemolytic assay (hemoglobin release); type: cell-based; conditions: 30 μM; RBCs hematocrit ~5%, 1 h 37 °C, absorbance 540 nm, 100% = 2% Triton X-100
Protocol: Plasmodium falciparum strain 3D7 was cultured in RPMI-1640 supplemented with 25 mg/l L-Glutamine; HEPES, NaHCO3; 50 mg/l Hypoxanthin; Gentamicien; 10% human serum; and RBCs at 3% hematocrit in an atmosphere of 5% CO2, 5% O2, and 90% N2 at 37°C as previously described. The Plasmodium lactate dehydrogenase (pLDH) assay was performed to measure the parasitic growth inhibition as described elsewhere[49] with BMAP-28 and its analogues treatment. In brief, malstat reagent was added to a 96-well plate (100 μL in each well). A Plasmodium infected RBC mixture of 20 μL in each well was mixed thoroughly using a plate shaker. And then 10 μL of each 1 mg/ml diaphorase and Nitroblue tetrozolium (NBT) were added to each well. The solution in the 96-well plate was mixed properly until a brown color appears and the absorbance was measured at 650 nm under a plate reader (PowerWaveHT, BioTek Instruments, USA). The hemolytic assay was carried out as described earlier. Briefly, RBCs prepared from fresh blood (Hematocrit ~5%) were incubated for 1 h at 37 °C after addition of test peptides. Relative hemoglobin concentration in supernatants after centrifugation at 2000× g for 5 min was monitored by measuring the absorbance at 540 nm by the plate reader (PowerWaveHT, BioTek Instruments, USA). As positive control, 100% hemolysis was taken from samples in which 2% Triton X-100 was added.

[5] = system: B16-F1 melanoma cells; test: MTT cell-viability assay, B16-F1 melanoma; type: cell-based, mouse
Protocol: The T-cell lymphoma (Jurkat) and B-cell lymphoma (Ramos) were cultured using RPMI-1640 medium supplemented with 10% fetal calf serum (FCS), 100 U ml^−1 penicillin and 100 μg ml^−1 streptomycin. An initial cell densities of 5 × 10^3 cells/well was uniformly maintained in a 96 well plate. The B16-F1 melanoma cells were grown in DMEM medium containing 10% FCS, 100 U ml^−1 penicillin and 100 μg ml^−1 streptomycin and 55 μM 2-mercaptoethanol. The cells were trypsinized and plated in a 96-well plate at a density of 5 × 10^3 cells/well. The cells were grown overnight at 37 °C using a 5% CO2 incubator. The cells were treated with different peptide concentration followed by cell proliferation assay. The MTT assay kit (Cayman chemicals, USA) was used to measure the cell viability at a peptide concentration varying from 2 to 15 μM (in triplicate). Fresh culture medium and cells in medium without peptide were considered as negative and positive controls for viability assay and was monitored at 24, 48 and 72 h. The Cayman MTT cell proliferation assay protocol was followed, and the absorbance were recorded at 570 nm using a microplate reader (PowerWaveHT, BioTek Instruments, USA).

[6] = system: osteoclasts (RANKL-induced from MDMs); test: RANKL-induced osteoclastogenesis; type: cell-based, mouse; conditions: 50 ng/ml RANKL plus M-CSF, TRAP staining after 4 days
Protocol: (§2) The C57BL/6 mice (8 weeks old male) were generated and maintained in a pathogen-free environment as described elsewhere. All animal experiments were carried out under approval from the Animal Research Committee of the Research Institute for Microbial Diseases (Osaka University, Osaka, Japan). All experiments were performed in accordance with relevant guidelines and regulations of Osaka University, Japan. The stromal cell-free osteoclast culture was performed using M-CSF-derived macrophage (MDMs) precursors. The bone marrow cells were flushed from femurs or tibias and cultured for 6 h in α-MEM supplemented with 10% FCS. The non-adherent cells were collected and plated in a 96-well plate at a density of 2 × 10^3 cells/well with 25 ng/ml M-CSF (PeproTech, Rocky Hill, NJ). The cell cultures were rinsed with PBS after 3 days incubation, and the adherent cells were used as MDMs. The MDMs were induced to differentiate into osteoclasts in the presence of 50 ng/ml RANKL plus M-CSF. The cells were treated with different peptide concentration to investigate the effect of peptides on the osteoclastogenesis process. After 4 days, TRAP staining was performed and TRAP positive multinucleated cell numbers (>3 nuclei) were counted.

[7] = system: B16-F1 melanoma tumor; test: In vivo B16-F1 melanoma mouse model; conditions: C57BL/6 mice n = 6, subcutaneous
Protocol: as §2, with “The MDMs were induced to differentiate into osteoclasts in the presence of 50 ng/ml RANKL plus M-CSF. The cells were treated with different peptide concentration to investigate the effect of peptides on the osteoclastogenesis process.” left out
Healthy C57BL/6 mice (n = 6) were administered with 30 μM Syn1 peptide mixed with 1 × 10^6 B16-F1 melanoma cells in 0.1 ml of saline via subcutaneous injections. […] The growth size of tumors were monitored in every two days and the tumor volume was measured by a dial-caliper on day 14 and 20 using the formula volume = width^2 × length × 0.52.

`CC[C@H](C)[C@H](NC(=O)[C@H](CCCCN)NC(=O)[C@H](CCCNC(=N)N)NC(=O)CNC(=O)[C@H](Cc1ccccc1)NC(=O)[C@H](CO)NC(=O)[C@H](CCCNC(=N)N)NC(=O)[C@H](Cc1ccccc1)NC(=O)CNC(=O)CN)C(=O)N[C@@H](Cc1ccccc1)C(=O)N[C@@H](CCCNC(=N)N)C(=O)N[C@@H](C)C(=O)N[C@@H](Cc1c[nH]c2ccccc12)C(=O)N[C@@H](CCCCN)C(=O)N[C@@H](CCCCN)C(=O)N[C@@H](Cc1ccc(O)cc1)C(=O)NCC(N)=O` [Syn1] (H-GGFRSFGRKIFRAWKKYG-NH2; N-terminus assumed) was tested, and the PI influx [1] was ~ 100%, the “TEM observation (in words)” value [2] was “membrane disruption and cell lysis” and the “TEM: membrane abnormalities or disruption (in words)” value [3] was “not observed”. For the same compound, the “Hemoglobin release (%) / hemolysis” value [4] was 7.2%, the “concentration found to be active” value [5] was ~ 30 μM and the “anticancer activity (in words)” value ([5]; 10 μM) was “fairly low anticancer activity”. For the same compound, the “activity in RANKL-induced osteoclastogenesis (in words)” value ([6]; 3 μM) was “significant activity”, the “activity in RANKL-induced osteoclastogenesis (in words)” value ([6]; 10 μM) was “complete abolition” and the “tumor formation (in words)” value ([7]; 30 μM Syn1 mixed with 1 × 10^6 B16-F1 cells in 0.1 ml saline, day 14 and 20) was “no tumor formation”. The “survival (in words)” value ([7]; 30 μM Syn1 mixed with 1 × 10^6 B16-F1 cells) was “alive”.
